Reference: the NIST ThermoML archive (doi:10.1021/je3010535)
Values joined by “and” are separate entries in the source; they are usually repeats but may differ in a detail not shown here. Identical values can stand only once. ± gives the expanded uncertainty stated by the source.

What was measured:
[1] = Henry's Law constant (molality scale); of the first substance listed, at infinite dilution; mn = molality of the nth substance listed, in mol/kg; details: Liquid, Chromatography, m1 = 0
[2] = Henry's Law constant (molality scale); of the first substance listed, at infinite dilution; xn = mol fraction of the nth substance listed; details: Liquid, Chromatography, x1 = 0

SMILES	Henry's Law constant ([1]; 274.15 K) [kPa·kg/mol]	Henry's Law constant ([1]; 294.65 K)	Henry's Law constant ([1]; 296.15 K) [kPa·kg/mol]	Henry's Law constant ([1]; 310.15 K) [kPa·kg/mol]	Henry's Law constant ([1]; 331.15 K) [kPa·kg/mol]	Henry's Law constant ([2]; 274.15 K) [kPa·kg/mol]	Henry's Law constant ([2]; 294.65 K)	Henry's Law constant ([2]; 296.15 K) [kPa·kg/mol]	Henry's Law constant ([2]; 310.15 K) [kPa·kg/mol]	Henry's Law constant ([2]; 331.15 K) [kPa·kg/mol]	Henry's Law constant ([2]; 313.15 K) [kPa·kg/mol]	Henry's Law constant ([2]; 326.15 K) [kPa·kg/mol]	other results
Clc1ccccc1 [chlorobenzene] + O	83.7 ± 25	246 kPa·kg/mol and 238 kPa·kg/mol	270 ± 81	423 ± 130	1180 ± 350								Henry's Law constant ([1]; 313.15 K): 532 ± 160 kPa·kg/mol; Henry's Law constant ([1]; 326.15 K): 1050 ± 310 kPa·kg/mol
ClC(Cl)=C(Cl)Cl [tetrachloroethene] + O	320 ± 130	755 kPa·kg/mol and 879 kPa·kg/mol	813 ± 330	2470 ± 990	5600 ± 2200								Henry's Law constant ([1]; 313.15 K): 2240 ± 900 kPa·kg/mol; Henry's Law constant ([1]; 326.15 K): 2750 ± 1100 kPa·kg/mol
CC1CCCCC1 [methylcyclohexane] + O	1060 ± 320	2350 kPa·kg/mol and 2300 kPa·kg/mol	2010 ± 600										Henry's Law constant ([1]; 313.15 K): 9440 ± 2800 kPa·kg/mol; Henry's Law constant ([1]; 326.15 K): 15600 ± 4700 kPa·kg/mol
CCCCC(C)=O [2-hexanone] + O	0.551 ± 0.17	4.89 kPa·kg/mol and 5.91 kPa·kg/mol	7.07 ± 2.1	17.9 ± 5.4	122 ± 36								Henry's Law constant ([1]; 320.15 K): 48.2 ± 14 kPa·kg/mol; Henry's Law constant ([1]; 333.15 K): 136 ± 41 kPa·kg/mol
Clc1ccc(Cl)c(Cl)c1 [1,2,4-trichlorobenzene] + O	26.9 ± 11	75.2 kPa·kg/mol and 81.4 kPa·kg/mol	83.2 ± 33	148 ± 59	425 ± 170								Henry's Law constant ([1]; 320.15 K): 260 ± 100 kPa·kg/mol; Henry's Law constant ([1]; 326.15 K): 730 ± 290 kPa·kg/mol
Clc1cccc(Cl)c1 [1,3-dichlorobenzene] + O	50.3 ± 20	160 kPa·kg/mol and 164 kPa·kg/mol	185 ± 74	309 ± 120	768 ± 310								Henry's Law constant ([1]; 313.15 K): 552 ± 220 kPa·kg/mol; Henry's Law constant ([1]; 320.15 K): 519 ± 210 kPa·kg/mol; Henry's Law constant ([1]; 326.15 K): 967 ± 390 kPa·kg/mol
Clc1ccc(Cl)cc1 [1,4-dichlorobenzene] + O	52.8 ± 21	136 kPa·kg/mol and 149 kPa·kg/mol	160 ± 64	263 ± 110	686 ± 270								Henry's Law constant ([1]; 313.15 K): 476 ± 190 kPa·kg/mol; Henry's Law constant ([1]; 320.15 K): 451 ± 180 kPa·kg/mol; Henry's Law constant ([1]; 326.15 K): 804 ± 320 kPa·kg/mol
Cc1ccccc1C [1,2-dimethylbenzene] + O	96.1 ± 29	281 kPa·kg/mol and 291 kPa·kg/mol	318 ± 95	321 ± 96	1360 ± 410								Henry's Law constant ([1]; 313.15 K): 781 ± 230 kPa·kg/mol; Henry's Law constant ([1]; 326.15 K): 1400 ± 420 kPa·kg/mol
Cl/C=C/CCl [(E)-1,3-dichloro-1-propene] + O	52.9 ± 16	144 kPa·kg/mol	153 ± 46	300 ± 90	929 ± 280								
Cc1ccc(C)c(C)c1 [1,2,4-trimethylbenzene] + O	82.9 ± 33	235 kPa·kg/mol and 255 kPa·kg/mol	292 ± 120	497 ± 200	1390 ± 550								Henry's Law constant ([1]; 313.15 K): 974 ± 390 kPa·kg/mol; Henry's Law constant ([1]; 326.15 K): 1770 ± 710 kPa·kg/mol
BrCCBr [1,2-dibromoethane] + O	12.7 ± 3.8	54.1 kPa·kg/mol and 41.2 kPa·kg/mol	57.8 ± 17	130 ± 39	333 ± 100								Henry's Law constant ([1]; 320.15 K): 218 ± 66 kPa·kg/mol
c1ccccc1 [benzene] + O	193 ± 58	480 kPa·kg/mol and 474 kPa·kg/mol	528 ± 160	1190 ± 360	2240 ± 670								Henry's Law constant ([1]; 313.15 K): 832 ± 250 kPa·kg/mol; Henry's Law constant ([1]; 326.15 K): 1410 ± 420 kPa·kg/mol
CCc1ccccc1 [ethylbenzene] + O	162		533		1830								Henry's Law constant ([1]; 313.15 K): 1290 kPa·kg/mol; Henry's Law constant ([1]; 326.15 K): 2320 kPa·kg/mol
Cc1ccccc1 [toluene] + O	164 ± 49	459 kPa·kg/mol and 470 kPa·kg/mol	489 ± 150	316 ± 95	3030 ± 910								Henry's Law constant ([1]; 313.15 K): 982 ± 290 kPa·kg/mol; Henry's Law constant ([1]; 326.15 K): 1840 ± 550 kPa·kg/mol
Cl/C=C\CCl [(Z)-1,3-dichloro-1-propene] + O	25.3 ± 7.6	87.5 kPa·kg/mol and 89.1 kPa·kg/mol	94.4 ± 28	202 ± 61	657 ± 200								Henry's Law constant ([1]; 320.15 K): 386 ± 120 kPa·kg/mol
CCC(C)=O [butanone] + O						0.416 ± 0.12	1.72 kPa·kg/mol and 2.37 kPa·kg/mol	2.62 ± 0.79	8.13 ± 2.4	43.9 ± 13			Henry's Law constant ([2]; 320.15 K): 15.3 ± 4.6 kPa·kg/mol; Henry's Law constant ([2]; 333.15 K): 62 ± 19 kPa·kg/mol
ClCBr [bromochloromethane] + O						50.8 ± 15	121 kPa·kg/mol and 123 kPa·kg/mol	126 ± 38	259 ± 78	795 ± 240			Henry's Law constant ([2]; 320.15 K): 479 ± 140 kPa·kg/mol
ClC/C=C/CCl [trans-1,4-dichloro-2-butene] + O						3.9 ± 1.6	28.2 kPa·kg/mol and 17.7 kPa·kg/mol	31.6 ± 13	96.4 ± 39	155 ± 62			Henry's Law constant ([2]; 320.15 K): 175 ± 70 kPa·kg/mol
CC(C)=O [acetone] + O						0.231 ± 0.092	1.44 kPa·kg/mol and 1.26 kPa·kg/mol	1.13 ± 0.45	7.55 ± 3	16 ± 6.4			Henry's Law constant ([2]; 320.15 K): 11.5 ± 4.6 kPa·kg/mol; Henry's Law constant ([2]; 333.15 K): 41.1 ± 16 kPa·kg/mol
CCCl [chloroethane] + O						522 ± 160					1950 ± 580	2940 ± 880	

SMILES	Henry's Law constant ([1]; 274.15 K) [kPa·kg/mol]	Henry's Law constant ([1]; 294.65 K)	Henry's Law constant ([1]; 296.15 K) [kPa·kg/mol]	Henry's Law constant ([1]; 310.15 K) [kPa·kg/mol]	Henry's Law constant ([1]; 331.15 K) [kPa·kg/mol]	Henry's Law constant ([2]; 274.15 K) [kPa·kg/mol]	Henry's Law constant ([2]; 294.65 K)	Henry's Law constant ([2]; 296.15 K) [kPa·kg/mol]	Henry's Law constant ([2]; 310.15 K) [kPa·kg/mol]	Henry's Law constant ([2]; 331.15 K) [kPa·kg/mol]	Henry's Law constant ([2]; 313.15 K) [kPa·kg/mol]	Henry's Law constant ([2]; 326.15 K) [kPa·kg/mol]	other results
CCCCc1ccccc1 [butylbenzene] + O						174		458	481	1280	2290	3470	
ClCCl [dichloromethane] + O						85.1 ± 26	222 kPa·kg/mol and 214 kPa·kg/mol	250 ± 75			523 ± 160	686 ± 210	
FC(Cl)(Cl)Cl [trichlorofluoromethane] + O						987 ± 300					8110 ± 2400	15600 ± 4700	
ClC(Cl)=C(Cl)C(Cl)=C(Cl)Cl [1,1,2,3,4,4-hexachloro-1,3-butadiene] + O						145		287	366		2180	3830	
CC=C(Cl)Cl [1,1-dichloro-1-propene] + O						556 ± 170	1480 kPa·kg/mol and 1360 kPa·kg/mol	1460 ± 440			3190 ± 960	5570 ± 1700	
CC(Cl)CCl (centres undefined) [1,2-dichloropropane] + O						70.7 ± 21	217 kPa·kg/mol and 198 kPa·kg/mol	225 ± 67	418 ± 130	1210 ± 360		699 ± 210	
C=C(Cl)Cl [1,1-dichloroethene] + O						787 ± 240					4460 ± 1300	10500 ± 3200	
C1CCCCC1 [cyclohexane] + O						1010 ± 300	2250 kPa·kg/mol	2250 ± 670			9460 ± 2800	15700 ± 4700	
C=C(C)C#N [isopropenylnitrile] + O						2.92 ± 1.2	14.7 kPa·kg/mol and 16.8 kPa·kg/mol	16.7 ± 6.7	50.9 ± 20	147 ± 59			Henry's Law constant ([2]; 320.15 K): 68.5 ± 27 kPa·kg/mol; Henry's Law constant ([2]; 333.15 K): 261 ± 100 kPa·kg/mol
Cc1ccc(Cl)cc1 [4-chlorotoluene] + O						85.6		232	224	888	591	1240	
BrC(Br)Br [tribromomethane] + O						7.47 ± 2.2	46.4 kPa·kg/mol and 29.9 kPa·kg/mol	50.9 ± 15	120 ± 36	328 ± 98			Henry's Law constant ([2]; 320.15 K): 200 ± 60 kPa·kg/mol
S=C=S [carbon disulfide] + O						682 ± 200					2930 ± 880	5690 ± 1700	
CC(C)(C)O [2-methylpropan-2-ol] + O													Henry's Law constant ([2]; 273.25 K): 0.055 ± 0.017 kPa·kg/mol; Henry's Law constant ([2]; 298.15 K): 1.25 ± 0.37 kPa·kg/mol; Henry's Law constant ([2]; 311.15 K): 3.19 ± 0.96 kPa·kg/mol; Henry's Law constant ([2]; 332.15 K): 6.96 ± 2.1 kPa·kg/mol
ClC(Cl)Br [bromodichloromethane] + O						60.5 ± 18	165 kPa·kg/mol and 162 kPa·kg/mol	172 ± 51	347 ± 100	973 ± 290			
FC(F)(Cl)C(F)(Cl)Cl [1,1,2-trichloro-1,2,2-trifluoroethane] + O						1070 ± 320					16800 ± 5000	20100 ± 6000	
Clc1cccc(Cl)c1Cl [1,2,3-trichlorobenzene] + O						17.8 ± 5.3	56.4 kPa·kg/mol and 54.8 kPa·kg/mol	63 ± 19	124 ± 37	324 ± 97			Henry's Law constant ([2]; 320.15 K): 199 ± 60 kPa·kg/mol
COC(C)=O [methyl ethanoate] + O						1.06 ± 0.42	5.33 kPa·kg/mol and 7.39 kPa·kg/mol	7.53 ± 3	34.1 ± 14	83.1 ± 33			Henry's Law constant ([2]; 320.15 K): 52.4 ± 21 kPa·kg/mol; Henry's Law constant ([2]; 333.15 K): 125 ± 50 kPa·kg/mol
CBr [bromomethane] + O						399 ± 120					1120 ± 340	1920 ± 580	
Cc1ccccc1Cl [2-chlorotoluene] + O						90.4 ± 36	248 kPa·kg/mol and 316 kPa·kg/mol	356 ± 140	503 ± 200	1040 ± 420	890 ± 360	1280 ± 510	Henry's Law constant ([2]; 320.15 K): 533 ± 210 kPa·kg/mol
